Tested on: mini-explants from the dermoepidermal junction of the hoof
Assay: In vitro study of hoof laminar mini-explants pre-incubated with tirilazad, then Bothrops alternatus venom, as a model for laminitis; histopathology (H-E, PAS)
Format: cell-based
Protocol: An in vitro study was conducted to analyze the protective effects of tirilazad mesylate on cellular degeneration as a result of Bothrops alternatus snake venom as a model for laminitis. Explant tissue samples were obtained from the dermoepidermal junction of the hoof of the right forelimb under nervous system block without the need for euthanasia.
Under sterile conditions, laminar cuts (mini-explants) were made of each explant and the tissue washed with physiological solution. The mini-explants were pre-incubated for 5 hours with tirilazad and then for 24 hours with Bothrops venom. Culture medium was as follows: Dulbecco's […] (DMEM, GIBCO-Invitrogen) with 10% heat-inactivated fetal bovine serum (FBS, GIBCO-Invitrogen), L-Glutamine (29.2 mg/mL), Penicillin (10,000 units/mL), and Streptomycin (10,000 μg/mL, GIBCO-Invitrogen) as antibiotics.
Histopathology: Tissues were processed with classical histological techniques, e.g., cutting by microtome (Minot) and stained with hematoxylin-eosin (H-E) and Periodic Acid Schiff (PAS) stains.

[1] = Tirilazad 1 μM (5 hours pre-incubation) + venom 75 μg/ml (24 hours), listed as tirilazad
[2] = Tirilazad 1 μM, no venom, listed as tirilazad
[3] = Tirilazad 3 μM (5 hours pre-incubation) + venom 75 μg/ml (24 hours)
[4] = Tirilazad 3 μM, no venom, listed as tirilazad
[5] = Tirilazad 10 μM (5 hours pre-incubation) + venom 75 μg/ml (24 hours), listed as tirilazad
[6] = Tirilazad 10 μM, no venom, listed as tirilazad
[7] = Tirilazad 20 μM (5 hours pre-incubation) + venom 75 μg/ml (24 hours)

## C[C@@H]1C[C@H]2[C@@H]3CCC4=CC(=O)C=C[C@]4(C)C3=CC[C@]2(C)[C@H]1C(=O)CN1CCN(c2cc(N3CCCC3)nc(N3CCCC3)n2)CC1 [Tirilazad, 16α-methyl-21-[4-[2,6-bis(1-pyrrolidinyl)-4-pyrimidinyl]-1-piperazinyl]pregna-1,4,9(11)-triene-3,20-dione]
Tirilazad 1 μM (5 hours pre-incubation) + venom 75 μg/ml (24 hours)
  Separation of Basement Membrane: No
[1]
  Cell Nuclei: intense presence of altered epidermal cells
  Pyknosis or Karyopyknosis: with nuclear pyknosis
  Separation of Basement Membrane: did not show separation of the basement membrane
Tirilazad 1 μM, no venom
  Pyknosis or Karyopyknosis: No
  Separation of Basement Membrane: No
[2]
  Cell Nuclei: epidermal cells were normal and showed preserved cytoplasmic and nuclear structure
  Separation of Basement Membrane: did not show separation of the basement membrane
[3]
  Cell Nuclei: intense presence of altered epidermal cells
  Pyknosis or Karyopyknosis: nuclear pyknosis predominating
  Separation of Basement Membrane: slight separation of the basement membrane
Tirilazad 3 μM, no venom
  Separation of Basement Membrane: No
[4]
  Cell Nuclei: slight epidermal cytoplasmic and nuclear alteration
  Separation of Basement Membrane: did not show separation of the basement membrane
Tirilazad 10 μM (5 hours pre-incubation) + venom 75 μg/ml (24 hours)
  Separation of Basement Membrane: No
[5]
  Cell Nuclei: Moderate presence of altered epidermal cells
  Pyknosis or Karyopyknosis: moderate nuclear pyknosis
  Separation of Basement Membrane: did not show separation of the basement membrane
Tirilazad 10 μM, no venom
  Pyknosis or Karyopyknosis: No
  Separation of Basement Membrane: No
[6]
  Cell Nuclei: epidermal cells were normal and showed preserved cytoplasmic and nuclear structure
  Separation of Basement Membrane: did not show separation of the basement membrane
[7]
  Cell Nuclei: intense presence of altered epidermal cells
  Pyknosis or Karyopyknosis: intense nuclear pyknosis
  Separation of Basement Membrane: intense separation of the basement membrane
Tirilazad 20 μM, no venom
  Cell Nuclei: epidermal cells were normal and showed preserved cytoplasmic and nuclear structure
  Pyknosis or Karyopyknosis: No
  Separation of Basement Membrane: intense separation of the basement membrane
Overall conclusion of the explant study
  effect on cellular structure in hoof tissue: provides a protective and/or therapeutic effect

— patent US20250064834A1, “COMPOSITIONS AND METHODS FOR TREATMENT AND PREVENTION OF DISEASES UTILIZING TIRILAZAD SALTS” (priority 2022, published 2025)
